Test results published in US9073918B2, “Pyrazolo[4,3-b]pyridine-7-amine inhibitors of ALK5” (Takeda Pharmaceutical Company Limited, priority 2010, dated 2015).
Where a name gives a salt, the structure may show the parent alone.

Columns and labels:
TGF-β R1 ALK5 = molecular target: T1, TGF-β R1 ALK5 (Homo sapiens, UniProt P36897); test: In vitro inhibition of ALK5 (LanthaScreen activity assay, TR-FRET); type: biochemical
T1 construct: purchased Invitrogen PV5837
T1 sequence (P36897 34-503): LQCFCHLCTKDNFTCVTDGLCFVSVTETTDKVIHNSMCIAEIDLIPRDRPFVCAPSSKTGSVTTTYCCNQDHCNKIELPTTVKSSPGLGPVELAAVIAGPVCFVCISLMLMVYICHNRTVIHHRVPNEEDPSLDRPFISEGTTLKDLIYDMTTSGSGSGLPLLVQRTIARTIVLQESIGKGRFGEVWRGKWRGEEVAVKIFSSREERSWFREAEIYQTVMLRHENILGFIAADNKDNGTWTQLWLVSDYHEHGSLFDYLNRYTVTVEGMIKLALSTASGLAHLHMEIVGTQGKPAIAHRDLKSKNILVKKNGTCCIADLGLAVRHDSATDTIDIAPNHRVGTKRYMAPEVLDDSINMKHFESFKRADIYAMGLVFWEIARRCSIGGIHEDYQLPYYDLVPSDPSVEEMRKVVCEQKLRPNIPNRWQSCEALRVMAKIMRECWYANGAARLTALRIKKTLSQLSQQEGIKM

cellular TGF-β R1 ALK5 = molecular target: T2, cellular TGF-β R1 ALK5 (Homo sapiens, UniProt P36897); test: Cellular inhibition of ALK5 (CellSensor SBE-bla HEK 293T beta-lactamase reporter); type: cell-based; details: cellular inhibition of ALK5, SBE-bla HEK 293T cells, TGFb-1 stimulated 5 hours; average where measured in multiple experiments
T2 construct: host or cells: CellSensor SBE-bla HEK 293T
T2 sequence (P36897 34-503): T1 sequence (P36897 34-503)
Outline: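 SBE-bla HEK 293T beta-lactamase reporter cells pre-incubated 1 h at 37 °C with 2.5-fold serially diluted compounds (0.5% DMSO), then stimulated 5 h with TGFb-1 (100 ng/mL stock).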

Row | melting point [°C] | Molecule | also measured
1 | 182 to 184 | Cc1ccc(F)c(-c2cc(Nc3ccnc4cn(C[C@H](O)CO)nc34)ccn2)n1 (as salt: HCl) [Example 69, (S)-3-(7-(3′-fluoro-6′-methyl-2,2′-bipyridin-4-ylamino)-2H-pyrazolo[4,3-b]pyridin-2-yl)propane-1,2-diol] | 
2 | 256 | CCNC(=O)n1ncc2nccc(Nc3ccnc(-c4cc(Cl)ccc4F)c3)c21 (as salt: TFA) [Example 29, 7-(2-(5-chloro-2-fluorophenyl)pyridin-4-ylamino)-N-ethyl-1H-pyrazolo[4,3-b]pyridine-1-carboxamide] | 
3 | 256 | CNC(=O)n1ncc2nccc(Nc3ccnc(-c4cc(Cl)ccc4F)c3)c21 (as salt: TFA) [Example 32, 7-(2-(5-chloro-2-fluorophenyl)pyridin-4-ylamino)-N-methyl-1H-pyrazolo[4,3-b]pyridine-1-carboxamide] | 
4 | 293 | CN(C)C(=O)Cn1ncc2nccc(Nc3ccnc(-c4cc(Cl)ccc4F)c3)c21 (as salt: TFA) [Example 38, 2-(7-(2-(5-chloro-2-fluorophenyl)pyridin-4-ylamino)-1H-pyrazolo[4,3-b]pyridin-1-yl)-N,N-dimethylacetamide] | 
5 | 131 to 132 | NC(=O)Cn1ncc2nccc(Nc3ccnc(-c4cc(Cl)ccc4F)c3)c21 (as salt: TFA) [Example 44, 2-(7-(2-(5-chloro-2-fluorophenyl)pyridin-4-ylamino)-1H-pyrazolo[4,3-b]pyridin-1-yl)acetamide] | 
6 | 135 | CNC(=O)n1ncc2nccc(Nc3cc(-c4cc(Cl)ccc4F)ncc3C)c21 (as salt: TFA) [Example 52, 7-(2-(5-chloro-2-fluorophenyl)-5-methylpyridin-4-ylamino)-N-methyl-1H-pyrazolo[4,3-b]pyridine-1-carboxamide] | 
7 | 292 | Cc1cnc(-c2cc(Cl)ccc2F)cc1Nc1ccnc2cnn(C(=O)NC(C)C)c12 (as salt: TFA) [Example 54, 7-(2-(5-chloro-2-fluorophenyl)-5-methylpyridin-4-ylamino)-N-isopropyl-1H-pyrazolo[4,3-b]pyridine-1-carboxamide] | 
8 | 248 | CNC(=O)n1ncc2nccc(Nc3cc(C)nc(-c4cc(Cl)ccc4F)c3)c21 (as salt: TFA) [Example 58, 7-(2-(5-chloro-2-fluorophenyl)-6-methylpyridin-4-ylamino)-N-methyl-1H-pyrazolo[4,3-b]pyridine-1-carboxamide] | 
9 | 245 | CCNC(=O)n1ncc2nccc(Nc3cc(C)nc(-c4cc(Cl)ccc4F)c3)c21 (as salt: TFA) [Example 59, 7-(2-(5-chloro-2-fluorophenyl)-6-methylpyridin-4-ylamino)-N-ethyl-1H-pyrazolo[4,3-b]pyridine-1-carboxamide] | 
10 | 135 to 136 | Cc1ccc(F)c(-c2cc(Nc3ccnc4cnn(CC(C)(C)O)c34)ccn2)n1 (as salt: TFA) [Example 70, 1-(7-(3′-fluoro-6′-methyl-2,2′-bipyridin-4-ylamino)-1H-pyrazolo[4,3-b]pyridin-1-yl)-2-methylpropan-2-ol] | 
11 | 102.9 to 103 | Cc1ccc(F)c(-c2cc(Nc3ccnc4cn(C)nc34)c(C)cn2)n1 [Example 123, N-(3′-fluoro-5,6′-dimethyl-2,2′-bipyridin-4-yl)-2-methyl-2H-pyrazolo[4,3-b]pyridin-7-amine] | IC50 (TGF-β R1 ALK5): 0.0251 µM; IC50 (cellular TGF-β R1 ALK5): 0.0794 µM
12 |  | CCNC(=O)Cn1cc2nccc(Nc3cc(-c4cc(F)ccc4F)ncc3C)c2n1 [Example 156, 2-(7-(2-(2,5-difluorophenyl)-5-methylpyridin-4-ylamino)-2H-pyrazolo[4,3-b]pyridin-2-yl)-N-ethylacetamide] | IC50 (TGF-β R1 ALK5): 0.00316 µM; IC50 (cellular TGF-β R1 ALK5): 0.126 µM
13 |  | Cc1ccc(F)c(-c2cc(Nc3ccnc4cnn(C5CCS(=O)(=O)C5)c34)c(C)cn2)n1 (stereo not drawn) [Example 157, N-[1-(1,1-dioxidotetrahydrothiophen-3-yl)-1H-pyrazolo[4,3-b]pyridin-7-yl]-3′-fluoro-5,6′-dimethyl-2,2′-bipyridin-4-amine] | IC50 (TGF-β R1 ALK5): 0.0251 µM; IC50 (cellular TGF-β R1 ALK5): 0.398 µM
14 |  | CNC(=O)Cn1cc2nccc(Nc3cc(-c4cc(F)ccc4F)ncc3C)c2n1 [Example 158, 2-(7-(2-(2,5-difluorophenyl)-5-methylpyridin-4-ylamino)-2H-pyrazolo[4,3-b]pyridin-2-yl)-N-methylacetamide] | IC50 (TGF-β R1 ALK5): 0.00631 µM; IC50 (cellular TGF-β R1 ALK5): 0.126 µM
15 |  | N-(2-(5-chloro-2-fluorophenyl)pyridin-4-yl)-2-(2-methoxyethyl)-2H-pyrazolo[4,3-b]pyridin-7-amine and N-(2-(5-chloro-2-fluorophenyl)pyridin-4-yl)-1-(2-methoxyethyl)-2H-pyrazolo[4,3-b]pyridin-7-amine [Example 35] | pIC50 (TGF-β R1 ALK5; in vitro inhibition of ALK5, 15 nM ALK5, 2 μM ATP, Fluorescein-SMAD3 peptide, 90 minutes at room temperature, average where measured in multiple experiments): 6.6; pIC50 (cellular TGF-β R1 ALK5): 6.6
